# Assays:
# [1] = Intravenous and oral dosing pharmacokinetic screen, plasma concentration by LC/MS/MS; set-up: species or system C57BL/6 mice; settings: in vivo; for concentration at 0.083 h / concentration at 0.25 h / concentration at 0.5 h / concentration at 2 h / concentration at 4 h / concentration at 1 h / concentration at 8 h / concentration at 24 h: B02 concentration
# Protocol: (§1) Tucaresol, Compound B02, Compound C01, Compound C02-1, and Compound C02 were dosed once, by IV bolus (3 mg/kg in 20% hydroxyprophyl-13-cyclodextrin with 1 eq NaOH) or PO (10 mg/kg in 1% carboxymethylcellulose/0.1% tween-80 in water), to non-fasted male C57BL/6 mice. Animals were bled from the dorsal metatarsal vein (from the heart for 24 hour time point) for K2-EDTA plasma 0.083 (for IV only), 0.25, 0.5, 1, 2, 4, 8, and 24 hours after dosing. The plasma concentration of the dosed tucaresol or compound were measured by LC/MS/MS (I-CMS-8060 instrument for MS). PK parameters were then calculated with WinNonlin 6.1. For Compounds C01, CO2 and CO2-1, stability in C57BL/6 K2EDTA plasma was also evaluated at 22° C. over 1 hour by utilizing LC.
# [2] = Stability in C57BL/6 K2EDTA plasma at 22° C. over 1 hour by LC; assay type: in vitro ADME, mouse; settings: for mouse plasma stability (in words): 22° C.; for Remaining %: mouse plasma, 2,000 ng/mL, 22°C
# Protocol: as §1
# Compounds C01 and C02-1 are unstable at 22° C.
# [3] = male, C57BL/6, mouse, iv, 3 mg/kg, 0.083 h
# [4] = male, C57BL/6, mouse, iv, 3 mg/kg, 0.25 h
# [5] = male, C57BL/6, mouse, iv, 3 mg/kg, 2 h
# [6] = male, C57BL/6, mouse, iv, 3 mg/kg, 4 h
# [7] = male, C57BL/6, mouse, iv, 3 mg/kg, 8 h
# [8] = male, C57BL/6, mouse, iv, 3 mg/kg
# [9] = male, C57BL/6, mouse, iv, 3 mg/kg, Mean
# [10] = male, C57BL/6, mouse, po, 10 mg/kg, 0.25 h
# [11] = male, C57BL/6, mouse, po, 10 mg/kg, 0.5 h
# [12] = male, C57BL/6, mouse, po, 10 mg/kg, 1 h
# [13] = male, C57BL/6, mouse, po, 10 mg/kg, 2 h
# [14] = male, C57BL/6, mouse, po, 10 mg/kg, 4 h
# [15] = male, C57BL/6, mouse, po, 10 mg/kg, 8 h
# [16] = male, C57BL/6, mouse, po, 10 mg/kg
# [17] = male, C57BL/6, mouse, po, 10 mg/kg, Mean
# [18] = male, C57BL/6, mouse, iv, 3 mg/kg, 0.5 h
# [19] = male, C57BL/6, mouse, iv, 3 mg/kg, 1 h
smiles,measurement,setting,value
"CO/N=C/c1c(O)cccc1OCc1ccc(C(=O)O)cc1 [Compound B02, (E)−4+((3-hydroxy-2-((methoxyimino)methyl)phenoxy)methyl)benzoic acid]",AUClast/D,"[1]; male, C57BL/6, mouse",24.3 ng·h/mL per mg/kg
same,T1/2,"[1]; male, C57BL/6, mouse",5.49 h
same,Tmax,"[1]; male, C57BL/6, mouse",5.42 h
same,"Tucaresol plasma concentration, Mean",[1]; [3],12.5 ng/mL
same,"Tucaresol plasma concentration, Mean",[1]; [4],6.01 ng/mL
same,"Tucaresol plasma concentration, Mean",[1]; [5],4.30 ng/mL
same,"Tucaresol plasma concentration, Mean",[1]; [6],7.04 ng/mL
same,"Tucaresol plasma concentration, Mean",[1]; [7],8.52 ng/mL
same,concentration at 0.083 h,[1]; [8],3220 ng/mL
same,concentration at 0.25 h,[1]; [8],1740 ng/mL
same,concentration at 0.5 h,[1]; [8],335 ng/mL
same,concentration at 2 h,[1]; [8],179 ng/mL
same,concentration at 4 h,[1]; [8],43.4 ng/mL
same,concentration at 0.083 h,[1]; [9],3050 ng/mL
same,concentration at 0.25 h,[1]; [9],1340 ng/mL
same,concentration at 0.5 h,[1]; [9],283 ng/mL
same,concentration at 1 h,[1]; [9],48.3 ng/mL
same,concentration at 2 h,[1]; [9],187 ng/mL
same,concentration at 4 h,[1]; [9],54 ng/mL
same,concentration at 8 h,[1]; [9],18 ng/mL
same,"Tucaresol plasma concentration, Mean",[1]; [10],16.2 ng/mL
same,"Tucaresol plasma concentration, Mean",[1]; [11],9.3 ng/mL
same,"Tucaresol plasma concentration, Mean",[1]; [12],5.54 ng/mL
same,"Tucaresol plasma concentration, Mean",[1]; [13],11.0 ng/mL
same,"Tucaresol plasma concentration, Mean",[1]; [14],15.7 ng/mL
same,"Tucaresol plasma concentration, Mean",[1]; [15],28.4 ng/mL
same,concentration at 0.25 h,[1]; [16],5780 ng/mL
same,concentration at 0.5 h,[1]; [16],3370 ng/mL
same,concentration at 4 h,[1]; [16],468 ng/mL
same,concentration at 8 h,[1]; [16],114 ng/mL
same,concentration at 24 h,[1]; [16],6.93 ng/mL
same,concentration at 0.25 h,[1]; [17],4260 ng/mL
same,concentration at 0.5 h,[1]; [17],2650 ng/mL
same,concentration at 1 h,[1]; [17],674 ng/mL
same,concentration at 2 h,[1]; [17],478 ng/mL
same,concentration at 4 h,[1]; [17],412 ng/mL
same,concentration at 8 h,[1]; [17],152 ng/mL
same,concentration at 24 h,[1]; [17],10.5 ng/mL
"CC(=O)Oc1cccc(OCc2ccc(C(=O)O)cc2)c1C=O [Compound C01, 4-((3-acetoxy-2-formylphenoxy)methyl)benzoic acid]",mouse plasma stability (in words),[2],unstable
same,Remaining %,[2]; 0 min,100%
same,Remaining %,[2]; 5 min,15.0%
same,Remaining %,[2]; 15 min,1.07%
same,AUClast/D,"[1]; male, C57BL/6, mouse",4.24 ng·h/mL per mg/kg
same,F,"[1]; male, C57BL/6, mouse",0.333%
same,T1/2,"[1]; male, C57BL/6, mouse",4.24 h
same,Tmax,"[1]; male, C57BL/6, mouse",0.333 h
same,"Concentration, Compound B02 IV Plasma concentration-time data, Mean",[1]; [3],1021 ng/mL
same,"Concentration, Compound B02 IV Plasma concentration-time data, Mean",[1]; [4],691 ng/mL
same,"Concentration, Compound B02 IV Plasma concentration-time data, Mean",[1]; [18],465 ng/mL
same,"Concentration, Compound B02 IV Plasma concentration-time data, Mean",[1]; [19],316 ng/mL
same,"Concentration, Compound B02 IV Plasma concentration-time data, Mean",[1]; [5],201 ng/mL
same,"Concentration, Compound B02 IV Plasma concentration-time data, Mean",[1]; [6],116 ng/mL
same,"Concentration, Compound B02 IV Plasma concentration-time data, Mean",[1]; [7],60.9 ng/mL
same,tucaresol exposure in plasma (in words),"[1]; male, C57BL/6, mouse, po",significant but lower tucaresol exposure than Compound C02 dosing
same,"Concentration, Compound B02 PO Plasma concentration-time data, Mean",[1]; [10],643 ng/mL
same,"Concentration, Compound B02 PO Plasma concentration-time data, Mean",[1]; [11],512 ng/mL
same,"Concentration, Compound B02 PO Plasma concentration-time data, Mean",[1]; [12],386 ng/mL
same,"Concentration, Compound B02 PO Plasma concentration-time data, Mean",[1]; [13],302 ng/mL
same,"Concentration, Compound B02 PO Plasma concentration-time data, Mean",[1]; [14],191 ng/mL
same,"Concentration, Compound B02 PO Plasma concentration-time data, Mean",[1]; [15],107 ng/mL
same,"Concentration, Compound B02 PO Plasma concentration-time data, Mean","[1]; male, C57BL/6, mouse, po, 10 mg/kg, 24 h",7.50 ng/mL
same,tucaresol exposure in plasma (in words),"[1]; mouse, po",significant exposure to tucaresol in plasma
"COC(=O)c1ccc(COc2cccc(O)c2C=O)cc1 [Compound C02-1, methyl 4-((2-formyl-3-hydroxyphenoxy)methyl)benzoate]",mouse plasma stability (in words),[2],unstable
same,Remaining %,[2]; 0 min,100%
same,Remaining %,[2]; 5 min,18.9%
same,Remaining %,[2]; 15 min,16.7%
same,Remaining %,[2]; 30 min,6.56%
same,Remaining %,[2]; 60 min,2.37%
same,AUClast/D,"[1]; male, C57BL/6, mouse",161 ng·h/mL per mg/kg
same,T1/2,"[1]; male, C57BL/6, mouse",13.8 h
same,Tmax,"[1]; male, C57BL/6, mouse",3.33 h
same,"Tucaresol concentration, Mean",[1]; [3],17.3 ng/mL
same,"Tucaresol concentration, Mean",[1]; [4],52.9 ng/mL
same,"Tucaresol concentration, Mean",[1]; [18],79.9 ng/mL
same,"Tucaresol concentration, Mean",[1]; [19],60.5 ng/mL
same,"Tucaresol concentration, Mean",[1]; [5],49.3 ng/mL
same,"Tucaresol concentration, Mean",[1]; [6],36.0 ng/mL
same,"Tucaresol concentration, Mean",[1]; [7],18.2 ng/mL
same,"Tucaresol concentration, Mean",[1]; [11],15.9 ng/mL
same,"Tucaresol concentration, Mean",[1]; [12],49.9 ng/mL
same,"Tucaresol concentration, Mean",[1]; [13],103 ng/mL
same,"Tucaresol concentration, Mean",[1]; [14],114 ng/mL
same,"Tucaresol concentration, Mean",[1]; [15],83.0 ng/mL

# Reference: US20220387365A1, “TUCARESOL DERIVATIVES AND USES THEREOF” (BeyondSpring Pharmaceuticals, Inc., priority 2019, published 2022)
